Experimental findings from patent US9238015B2 (NESTEC S.A., priority 2012, dated 2016) are described below.

For one series, the system named is HT-29 clone 34 cells. The series is described as follows: HT-29 clone 34 cell viability (ATP, Cell Titer-Glo). The class given is cell-based, human. As to conditions: HT-29 clone 34 cells (FIG. 5). On the procedure:
10000 cells/well were seeded in 200 μl of culture medium in flat bottom white border 96 well plates (Greiner Bio One, Kremsmuenster, Austria). […] 20 μl of experimental medium containing (or not) LPS 055:B5 or rhTNF-α (100 and 10 ng/ml final, respectively) was added and the plates were incubated for 24 hours at 37° C. in a 5% CO2/air incubator.
Cell viability was determined by measuring ATP using Cell Titer-Glo kit (Promega). Briefly, remaining adherent HT-29 clone 34 cells were incubated for 10 min at room temperature under horizontal shaking (250 rpm) with 120 μl of Cell Titer-Glo reagent (pre-diluted twice in 1×PBS) and the luminescence was measured using Polarstar microplate reader (BMG, Offenburg, Germany) for 1000 ms with a gain value set to 3500.
In general terms: ATP-based viability assays read luminescence as a measure of living cells.

Another series concerns NF-κB. The experiment in a line: NF-κB activity (SEAP and IL-8 production) in HT-29 clone 34 cells. The class given is cell-based, human. On the procedure:
Two in-vitro systems were used: human colonic cells (HT-29 clone 34) and human monocytes/macrophages (THP-1 blue cells). The human colonic adenocarcinoma HT-29 clone 34 cell line (passage 42-50) are adherent cells stably transfected with a NF-κB/SEAP reporter plasmid. They were cultured in DMEM high glucose (4.5 g/L) (Invitrogen) containing 1% of stable L-glutamine and supplemented with 10% of heat inactivated (one hour at 56° C.) Foetal Calf Serum (FCS) (Bioconcept, Allschwil, Switzerland), 1% of Penicillin/Streptomycin (Sigma) and 500 μg/ml of Geneticin (PAA, Pasching, Austria) at 37° C. in a 5% CO2/air incubator. Culture medium was renewed every two days until the cell monolayer reached ˜90% confluence. Cells were sub-cultured using 1× Trypsin/EDTA (Sigma). 10000 cells/well were seeded in 200 μl of culture medium in flat bottom white border 96 well plates (Greiner Bio One, Kremsmuenster, Austria). […] Cell culture supernatants were then collected for measurement of NF-κB activity (determination of secreted alkaline phosphatase and IL-8 production) using Phosphalight (Applied Biosystems) and IL-8 singleplex (Meso Scale, Gaithersburg, Md.) kits, respectively.

The subject of another series is THP-1 blue cells. The series is described as follows: THP-1 blue cell viability (Cell Titer-Glo). It counts as cell-based, human. Conditions: THP-1 blue cells (FIG. 6). On the procedure:
200000 cells/well were seeded in 100 μl of culture medium in 96 well flat bottom transparent plates. […] 20 μl of culture media containing (or not) LPS 055:B5 (Sigma) (100 ng/ml final) was added and the plates were incubated for 16 hours at 37° C. in a 5% CO2/air incubator.
Cell culture supernatants were carefully transferred to 96 well-plates for NF-κB activity measurement which is proportional to the level of secreted alkaline phosphatase. Briefly, 100 μl of supernatants were mixed with 150 μl of QuantiBlue (Invivogen) in a 96 well-plates incubated for 3 h at 37° C. before OD measurements at 620 nm with Sunrise microplate reader (Tecan, Mannedorf, Switzerland). Cell viability was determined using Cell Titer-Glo kit as described above.

A further series has as its system Nrf2. The series is described as follows: Nrf2 reporter assay (AREc32 cells, ARE-luciferase). It counts as cell-based. Conditions: 24 h, dose range 0 to 200 μM (FIG. 3). On the procedure:
Activation of Nrf2 was measured using an Nrf2 reporter assay. This assay is based on the AREc32 cell line, from CRX biosciences (Dundee, Scotland), a stably transfected MCF7 (breast adenocarcinoma) cell line that contains a luciferase gene construct under the control of the ARE. Luciferase is an enzyme which digests luciferin and produces […]. Anti-oxidative molecules such as Tert-butylhydroquinone (TBHQ) induce luciferase transcription via the activation of Nrf2 that binds to ARE. Luciferase activity is determined using a luciferase kit form Promega (Madison, Wis.). The luciferase activity is proportional to the activation of Nrf2. […] The luciferase activity and the cell viability (ATP measurements) were determined using the Luciferase and Cell Titer-Glo kits from Promega. For each run the luciferase activities, measured in Relative Light Units (RLU), of all the wells were normalized with the mean of the luciferase activity of the cells only of all the plates. Among all the samples tested the normalization procedure was found not to affect the data and this observation permits the comparison of samples measured in different runs. For each sample the Nrf2 activation was calculated as follows: […] […] The luciferase content per sample allows a semi quantification of the Nrf2 activation by reflecting the amount of the Nrf2 activating molecule. […]
A general note: Reporter assays use an easily measured gene product as a stand-in for the process of interest.

A further series deals with AREc32 cells. The series is described as follows: AREc32 cell viability (ATP quantification, Cell Titer-Glo). The class given is cell-based. As to conditions: 24 h. On the procedure: To determine the Nrf2 activation the samples were tested on AREc32 cells (seeded in 96 well plates) using 10 independent dilutions (1/2, 1/4, 1/6, 1/10, 1/15, 1/20, 1/25, 1/30, 1/40 and 1/50) and incubated for 24 hours at 37° C. in a 5% CO2/air incubator. The luciferase activity and the cell viability (ATP measurements) were determined using the Luciferase and Cell Titer-Glo kits from Promega.
The cell viability was also measured using a cell Titer-Glo kit (ATP quantification).

On to `CC(=O)/C=C/C(=O)O` [4-oxo-2-pentenoic acid], for which the “doses showing a decrease in cell viability” value with HT-29 clone 34 cells is over 50 µM. In addition, the “inhibition of NF-κB activity” value in the series with NF-κB (HT-29 clone 34 cells stimulated with LPS (FIG. 5)) is “inhibits NF-κB activity in a dose dependent manner”. The “NF-κB activity (SEAP or IL-8 detection) in the absence of LPS” value in the series with NF-κB (HT-29 clone 34 cells, no LPS, doses tested 3 to 400 μM) is listed as “no NF-κB activity was observed”. Further, the “doses toxic to cells” value with THP-1 blue cells is reported as “higher than 75 μM”. Also, the Nrf2 activation entry in the series on Nrf2 was “strongly activate Nrf2 in a dose dependent manner”. The “doses at which viability of AREc32 cells was not affected” value in the series on AREc32 cells was “lower than 70 μM”.
